melting point: 152 to 153 °C
SMILES: COC(=O)c1cccc(OCCC(C#N)NC(=O)[C@H](Cc2cccc(C)c2)NC(=O)C(c2ccccc2)c2ccccc2)c1 (stereo partly drawn) [Example 305, N-[3-(3-(methoxycarbonyl)-phenoxy)-1-cyanopropyl]-3-methyl-Nα-(2,2-diphenylacetyl)-L-phenylalaninamide]

— patent US6353017B1, “Dipeptide nitriles” (Novartis AG, priority 1997, dated 2002)
